From ChEMBL document CHEMBL1833969, “Synthesis and antigastric ulcer activity of novel 5-isoproyl-3,8-dimethylazulene derivatives” (2011)

Tests used:
Type in all cases: functional
Conditions in all cases: Stomach
[1] = tested on: Mus musculus; assay: Antiulcerogenic activity in Kunming mouse assessed as inhibition of ethanol-induced gastric ulcer at 3.2 mg/kg, po qd for 5 days measured 1 hr post last dose relative to control
[2] = tested on: Mus musculus; assay: Antiulcerogenic activity in Kunming mouse assessed as inhibition of ethanol-induced gastric ulcer at 3.7 mg/kg, po qd for 5 days measured 1 hr post last dose relative to control
[3] = tested on: Mus musculus; assay: Antiulcerogenic activity in Kunming mouse assessed as inhibition of ethanol-induced gastric ulcer at 3.1 mg/kg, po qd for 5 days measured 1 hr post last dose relative to control
[4] = tested on: Mus musculus; assay: Antiulcerogenic activity in Kunming mouse assessed as inhibition of ethanol-induced gastric ulcer at 13.4 mg/kg, po qd for 5 days measured 1 hr post last dose relative to control
[5] = tested on: Mus musculus; assay: Antiulcerogenic activity in Kunming mouse assessed as inhibition of ethanol-induced gastric ulcer at 4.6 mg/kg, po qd for 5 days measured 1 hr post last dose relative to control
[6] = tested on: Mus musculus; assay: Antiulcerogenic activity in Kunming mouse assessed as inhibition of ethanol-induced gastric ulcer at 3 mg/kg, po qd for 5 days measured 1 hr post last dose relative to control
[7] = tested on: Mus musculus; assay: Antiulcerogenic activity in Kunming mouse assessed as inhibition of ethanol-induced gastric ulcer at 4.5 mg/kg, po qd for 5 days measured 1 hr post last dose relative to control
[8] = tested on: Mus musculus; assay: Antiulcerogenic activity in Kunming mouse assessed as inhibition of ethanol-induced gastric ulcer at 3.3 mg/kg, po qd for 5 days measured 1 hr post last dose relative to control
[9] = tested on: Mus musculus; assay: Antiulcerogenic activity in Kunming mouse assessed as inhibition of ethanol-induced gastric ulcer at 4.1 mg/kg, po qd for 5 days measured 1 hr post last dose relative to control
[10] = tested on: Mus musculus; assay: Antiulcerogenic activity in Kunming mouse assessed as inhibition of ethanol-induced gastric ulcer at 3.9 mg/kg, po qd for 5 days measured 1 hr post last dose relative to control
[11] = tested on: Mus musculus; assay: Antiulcerogenic activity in Kunming mouse assessed as inhibition of ethanol-induced gastric ulcer at 4.7 mg/kg, po qd for 5 days measured 1 hr post last dose relative to control
[12] = tested on: Mus musculus; assay: Antiulcerogenic activity in Kunming mouse assessed as inhibition of ethanol-induced gastric ulcer at 3.6 mg/kg, po qd for 5 days measured 1 hr post last dose relative to control
[13] = tested on: Mus musculus; assay: Antiulcerogenic activity in Kunming mouse assessed as inhibition of ethanol-induced gastric ulcer at 4 mg/kg, po qd for 5 days measured 1 hr post last dose relative to control
[14] = tested on: Mus musculus; assay: Antiulcerogenic activity in Kunming mouse assessed as inhibition of ethanol-induced gastric ulcer at 4.3 mg/kg, po qd for 5 days measured 1 hr post last dose relative to control

CCCNS(=O)(=O)c1cc(C)c2cc(C(C)C)ccc(C)c1-2
inhibition in vivo at 3.2 mg/kg [1]: 33%

Cc1ccc(NS(=O)(=O)c2cc(C)c3cc(C(C)C)ccc(C)c2-3)cc1
inhibition in vivo at 3.7 mg/kg [2]: 23.1%

CCNS(=O)(=O)c1cc(C)c2cc(C(C)C)ccc(C)c1-2
inhibition in vivo at 3.1 mg/kg [3]: 24.1%

COc1ccc2[nH]c([S+]([O-])Cc3ncc(C)c(OC)c3C)nc2c1 (stereo unspecified) [OMEPRAZOLE]
inhibition in vivo at 13.4 mg/kg [4]: 36.7%

Cc1cc(S(=O)(=O)Nc2ccc(/N=C/c3ccccc3)cc2)c2c(C)ccc(C(C)C)cc1-2
inhibition in vivo at 4.6 mg/kg [5]: 17.1%

Cc1cc(S(=O)(=O)Nc2ccc(/N=C/c3cccs3)cc2)c2c(C)ccc(C(C)C)cc1-2
inhibition in vivo at 4.6 mg/kg [5]: 50.2%

Cc1cc(S(=O)(=O)O)c2c(C)ccc(C(C)C)cc1-2 [SODIUM GUALENATE]
inhibition in vivo at 3 mg/kg [6]: 32.6%

Cc1cc(S(=O)(=O)N/N=C\c2ccc(C(F)(F)F)cc2)c2c(C)ccc(C(C)C)cc1-2
inhibition in vivo at 4.5 mg/kg [7]: 24.8%

Cc1cc(S(=O)(=O)NCC(C)C)c2c(C)ccc(C(C)C)cc1-2
inhibition in vivo at 3.3 mg/kg [8]: 33.9%

COc1ccc(NS(=O)(=O)c2cc(C)c3cc(C(C)C)ccc(C)c2-3)c(OC)c1
inhibition in vivo at 4.1 mg/kg [9]: 52.8%

Cc1cc(S(=O)(=O)Nc2ccc(Cl)cc2)c2c(C)ccc(C(C)C)cc1-2
inhibition in vivo at 3.9 mg/kg [10]: 24.8%

Cc1cc(S(=O)(=O)NC(C)C)c2c(C)ccc(C(C)C)cc1-2
inhibition in vivo at 3.2 mg/kg [1]: 18.7%

Cc1cc(S(=O)(=O)Nc2ccc(/N=C/c3ccccc3O)cc2)c2c(C)ccc(C(C)C)cc1-2
inhibition in vivo at 4.7 mg/kg [11]: 28.7%

Cc1cc(S(=O)(=O)N/N=C\c2cccs2)c2c(C)ccc(C(C)C)cc1-2
inhibition in vivo at 3.9 mg/kg [10]: 30.7%

Cc1cc(S(=O)(=O)NC2CCCCC2)c2c(C)ccc(C(C)C)cc1-2
inhibition in vivo at 3.6 mg/kg [12]: 50.9%

Cc1cc(S(=O)(=O)Nc2cccc3ccccc23)c2c(C)ccc(C(C)C)cc1-2
inhibition in vivo at 4 mg/kg [13]: 50.5%

Cc1cc(S(=O)(=O)N/N=C\c2ccccc2O)c2c(C)ccc(C(C)C)cc1-2
inhibition in vivo at 4 mg/kg [13]: 12.2%

Cc1cc(S(=O)(=O)Nc2ccc(N)cc2)c2c(C)ccc(C(C)C)cc1-2
inhibition in vivo at 3.1 mg/kg [3]: 45.2%

Cc1cc(S(=O)(=O)NCc2ccccc2)c2c(C)ccc(C(C)C)cc1-2
inhibition in vivo at 3.7 mg/kg [2]: 2.46%

COc1ccc(/C=N\NS(=O)(=O)c2cc(C)c3cc(C(C)C)ccc(C)c2-3)cc1
inhibition in vivo at 4.1 mg/kg [9]: 4.08%

Cc1cc(S(=O)(=O)Nc2cccc(Br)c2)c2c(C)ccc(C(C)C)cc1-2
inhibition in vivo at 4.3 mg/kg [14]: 51.3%
